Assay results reported in US20260306459A1, “INHIBITORS OF NSUN1- AND NSUN2-MEDIATED ACTIVE STRUCTURES” (THE UNIVERSITY OF CHICAGO, priority 2023, published 2026).
Entries after “also recorded” stand apart in the source; their conditions may differ.

How the values were obtained:
[1] = target: NSUN1-RNA:m5C interaction (Homo sapiens, UniProt P46087); assay: PL-RCA-FCM, NSUN1-RNA:m5C interaction; assay type: cell-based
From the text: (§1) FIGS. 5A-5G display a pipeline of computational design and functional screening of small-molecule compound libraries as well as exemplary characterization and validation of identified positive hit compounds and their targets. FIGS. 5A-5D display an exemplary experimental procedure, beginning with characterization of NSUN1 and/or NSUN2 putative binding modules for interaction with ACS components (FIGS. 5A-5B), a graphic displaying the design of a small molecule library and testing of the putative small molecule NSUN1/2-ACS inhibitors in cell lines (FIG. 5C), characterization of the NSUN1/2-ACS inhibitors interactions with the ACS machinery (FIG. 5D).
(§2) The PL-RCA-CM/imaging technique utilized in the inventors previous work (Cheng, J. X. et al., Nature Communications 2018) was suitable to visualize and semi-quantify the NSUN1/2-mediated ACS in cells. However, the previous technique had the disadvantage of having a low sensitivity and low throughput. To overcome this bottleneck, as described herein, the inventors developed NSUN1/2-targeting fluorescence quenching and release (FQR) plate assay (FIG. 6A) and PL-RCA flow cytometry (PL-RCA-FCM) technology (FIG. 6B) for screening of NSUN1/2-targeting drug libraries and quantitatively measuring NSUN1/2-mediated ACS with and without drugs in a lineage-specific and high-throughput manner. […]

NSUN1-c-MYC interaction = NSUN1-c-MYC interaction (Homo sapiens, UniProt P46087); assay: PL-RCA-FCM, NSUN1-c-MYC interaction; assay type: cell-based
From the text: as §1
(§3) Black=negative control, blue=positive control, no drug=red.
as §2, with “However, the previous technique had the disadvantage of having a low sensitivity and low throughput.” left out

[2] = tested on: leukemia and lung cancer cell lines; assay: Functional (MTT) screening of NSUN1/2-targeting libraries in leukemia and lung cancer cell lines; assay type: cell-based, human; settings: multiple leukemia lines and/or lung cancer cell lines
Experimental: (§4) FIGS. 11A-11D display scatter plot representations of screening results for AI-designed NSUN1-targeting compound libraries in a venetcoclax-resistant human myeloid leukemia cell line (SC), lung cancer cell line (H82), and venetoclax resistant human […], and a schematic representation of categorization of the results. A human myeloid leukemia cell Line (SC), a lung cancer cell line (H82 or K562) were both incubated at drug concentration 10 μM/μL overnight. MTT assays were performed after 24 hours, and changes were calculated as the percentage of mean absorbance (n=3) versus mean absorbance of drug-free control (n=3). Negative outliers indicated in red ovals. FIG. 11A depicts the results of an NSUN1-targeting drug library, 74 drugs, comparing growth/inhibition in H-82 (Y axis) and SC (X axis) cell lines. FIG. 11B depicts the results of an NSUN2-targeting drug library, 102 drugs, comparing growth/inhibition in H-82 (Y axis) and SC (X axis) cell lines. FIG. 11C depicts the results of an NSUN1-targeting drug library, 74 drugs, comparing growth/inhibition in K562 (Y axis) and SC (X axis) cell lines. FIG. 11D is a schematic representation showing categorization of the results from screens performed as described in FIG. 11, and validation experiments as described in FIG. 12.
(§5) FIGS. 12A-12J display bar graphs displaying the results of validation experiments for small molecule inhibitors of NSUN1/2-ACS interactions as identified herein. Drug validation of select SC, H82, and/or K562 inhibiting compounds in mouse acute myeloid leukemia cell Line (C1498), SC cells, H82 cells, and/or K562 cells. NSUN1-17 and/or venetoclax acted as controls. Inhibition of cell vitality was identified as dose-dependent for certain small molecules, not merely cytotoxic. In brief, stock with concentration 0.4×10^6 test (e.g., SC, H82, K562, or C1498, as labelled) cells/mL, and 10 μM/μL drug was serially diluted into drug-free cell stock to reach concentrations of 1 μM/μL and […] and split into 100 μL volumes in a 96-well plate. MTT assays performed after 24 hour incubation. Percentages calculated as a difference in mean absorbance of each drug triplicate and mean absorbance in drug-free cell triplicate. Red bars represent standard errors. The concentration of drug represented by each column is from left to right as written in the figure keys. FIGS. 12A-12E provide results from independent repeats for different groupings of small molecules tested against C1498 cells. FIGS. 12F-12G provide results from independent repeats for different groupings of small molecules tested against H82 cells. FIGS. […] provide results from independent repeats for different groupings of small molecules tested against SC cells. FIG. 12J provide results from an assay against K562 cells.
The inventors then designed a protocol for functional screening of NSUN1/2-targeting supercomputing/AI-derived compound libraries as schematically presented in FIGS. 5A-5G. Briefly, the library compounds were obtained from various chemical companies/vendors and dissolved in DMSO, and then applied to 96-well plates that contained leukemia and/or other cancer cells that were resistant to venetoclax. Both the routine colorimetric assay (MTT assay) and the newly developed NSUN1/2-targeting fluorescence quenching and release (FQR) assay were performed to select bioactive compounds for further quantitative study to confirm that they targetNSUN1/2 and their associated ACS. As described below, the compound libraries screened through cancer cell proliferation and/or NSUN1/2 localization to the ACS successfully identified numerous promising compounds that can inhibit the leukemia cell growth and appear to target the NSUN1-mediated ACS (see Table 2). This success has proven the feasibility and efficacy of the described supercomputing/AI design and functional screening of the NSUN1/2-targeting drug libraries. In some aspects, screening is conducted using drug-resistant cell lines. […]

[3] = target: T1, NSUN2-RNA polymerase II (RNAPII) interaction (Homo sapiens, UniProt Q08J23); assay: PL-RCA-FCM, NSUN2-RNAPII interaction; assay type: cell-based
T1 construct: RNAPII CTD2-S2P
From the text: as §3
The PL-RCA-CM/imaging technique utilized in the inventors previous work (Cheng, J. X. et al., Nature Communications 2018) was suitable to visualize and semi-quantify the NSUN1/2-mediated ACS in cells. However, the previous technique had the disadvantage of having a low sensitivity and low throughput. To overcome this bottleneck, as described herein, the inventors developed NSUN1/2-targeting fluorescence quenching and release (FQR) plate assay (FIG. 6A) and PL-RCA flow cytometry (PL-RCA-FCM) technology (FIG. 6B) for screening of NSUN1/2-targeting drug libraries and quantitatively measuring NSUN1/2-mediated ACS with and without drugs in a lineage-specific and high-throughput manner. The new PL-RCA-FCM detected very strong PL-RCA signals (>2 logs) of the NSUN2-mediated interactions with m5C, RNAPII CTD2-S2P and BRD4, particularly in the venetoclax-resistant leukemia cells (SC) (FIG. 6C), in comparison to the venetoclax-sensitive K1 cells (FIG. 6D).

[4] = tested on: NSUN1 and NSUN2 binding modules; assay: Synergy experiments; settings: besides the NSUN1 A-460 binding module
From the text: Without being limited by theory, this may potentially be why NSUN1-17 is effective in multiple different cancer types.

[5] = target: T2, NSUN1-eRNAPII interaction (Homo sapiens, UniProt P46087); assay: PL-RCA-FCM, NSUN1-eRNAPII interaction; assay type: cell-based
T2 construct: RNAPII
From the text: as §1, §3
as §2, with “However, the previous technique had the disadvantage of having a low sensitivity and low throughput.” left out

SC cells = assay: MTT growth inhibition in venetoclax-resistant monocytic leukemia cell line SC; assay type: cell-based, human
From the text: (§6) FIGS. 8A-8B display a schematic of an 5-ethynyl uridine click chemistry (EC)-coupled flow cytometry (EC-FCM) assay (FIG. 8A), while FIG. 8B depicts the results of an EC-FCM assay showing distinct drug-specific signatures/patterns of nascent RNA synthesis inhibition in the venetoclax sensitive leukemia cell line (K1). The MTT assay measures cell viability and proliferation as well as cytotoxicity of compounds by assessing cellular metabolic activity. The associated measurement can be described as cell viability, cell killing, and/or growth inhibition.
as §4, §5
The inventors then designed a protocol for functional screening of NSUN1/2-targeting supercomputing/AI-derived compound libraries as schematically presented in FIGS. 5A-5G. Briefly, the library compounds were obtained from various chemical companies/vendors and dissolved in DMSO, and then applied to 96-well plates that contained leukemia and/or other cancer cells that were resistant to venetoclax. […]

C1498 cells = assay: MTT growth inhibition in myeloid leukemia cell line C1498; assay type: cell-based, mouse; settings: mouse AML cell line
From the text: as §6, §5
The inventors then designed a protocol for functional screening of NSUN1/2-targeting supercomputing/AI-derived compound libraries as schematically presented in FIGS. 5A-5G. Briefly, the library compounds were obtained from various chemical companies/vendors and dissolved in DMSO, and then applied to 96-well plates that contained leukemia and/or other cancer cells that were resistant to venetoclax. Both the routine colorimetric assay (MTT assay) and the newly developed NSUN1/2-targeting fluorescence quenching and release (FQR) assay were performed to select bioactive compounds for further quantitative study to confirm that they targetNSUN1/2 and their associated ACS. As described below, the compound libraries screened through cancer cell proliferation and/or NSUN1/2 localization to the ACS successfully identified numerous promising compounds that can inhibit the leukemia cell growth and appear to target the NSUN1-mediated ACS (see Table 2). This success has proven the feasibility and efficacy of the described supercomputing/AI design and functional screening of the NSUN1/2-targeting drug libraries. In some aspects, screening is conducted using drug-resistant cell lines. In some aspects, screening is conducted using drug-sensitive cell lines. In some aspects, screening is conducted in leukemia cell lines. In some aspects, screening is conducted in other cancer cell lines besides leukemia (e.g., lung cancer cell lines). In some aspects, NSUN1/2-ACS inhibitors identified are verified in additional cell lines and/or animal models (see e.g., Tables 4-6).

H82 cells = assay: MTT growth inhibition in venetoclax-resistant lung cancer cell line H82; assay type: cell-based, human; settings: human lung cancer cell line NCI-H82
From the text: as §6, §4
FIGS. 12A-12J display bar graphs displaying the results of validation experiments for small molecule inhibitors of NSUN1/2-ACS interactions as identified herein. Drug validation of select SC, H82, and/or K562 inhibiting compounds in mouse acute myeloid leukemia cell Line (C1498), SC cells, H82 cells, and/or K562 cells. NSUN1-17 and/or venetoclax acted as controls. Inhibition of cell vitality was identified as dose-dependent for certain small molecules, not merely cytotoxic. In brief, stock with concentration 0.4×10^6 test (e.g., SC, H82, K562, or C1498, as labelled) cells/mL, and 10 μM/μL drug was serially diluted into drug-free cell stock to reach concentrations of 1 μM/μL and […] and split into 100 μL volumes in a 96-well plate. MTT assays performed after 24 hour incubation. Percentages calculated as a difference in mean absorbance of each drug triplicate and mean absorbance in drug-free cell triplicate. […]

Kasumi-1 (K1) cells = assay: Venetoclax sensitivity of Kasumi-1 cells; assay type: cell-based
CCRF-CEM cells = assay: Venetoclax sensitivity of CCRF-CEM cells; assay type: cell-based
K1VR cells = assay: Venetoclax sensitivity of K1VR cells after NSUN1/NSUN2 knockdown; assay type: cell-based; settings: knockdown of either NSUN1 or NSUN2
MDS/AML = settings: cited from earlier work
[6] = tested on: eRNAPII (CTD-S2P)-CTD-S5P interaction; settings: Cheng 2018; cited from earlier work
[7] = tested on: eRNAPII (CTD-S2P)-DNMT2 interaction; settings: Cheng 2018; cited from earlier work
SCAR cells = settings: low concentrations of 5-AZA, NSUN1 siRNA; Cheng 2018; cited from earlier work
[8] = tested on: eRNAPII (CTD-S2P)-NSUN3 interaction; settings: Cheng 2018; cited from earlier work
[9] = tested on: eRNAPII (CTD-S2P)-NSUN1 interaction; settings: Cheng 2018; cited from earlier work
BRD4-NSUN1 interaction = settings: azacitidine-resistant M2AR cells; Cheng 2018; cited from earlier work
[10] = tested on: BRD4-eRNAPII (CTD-S2P) interaction; settings: azacitidine-resistant M2AR cells; Cheng 2018; cited from earlier work

NSUN1-c-MYC interaction, sequence (P46087 whole entry): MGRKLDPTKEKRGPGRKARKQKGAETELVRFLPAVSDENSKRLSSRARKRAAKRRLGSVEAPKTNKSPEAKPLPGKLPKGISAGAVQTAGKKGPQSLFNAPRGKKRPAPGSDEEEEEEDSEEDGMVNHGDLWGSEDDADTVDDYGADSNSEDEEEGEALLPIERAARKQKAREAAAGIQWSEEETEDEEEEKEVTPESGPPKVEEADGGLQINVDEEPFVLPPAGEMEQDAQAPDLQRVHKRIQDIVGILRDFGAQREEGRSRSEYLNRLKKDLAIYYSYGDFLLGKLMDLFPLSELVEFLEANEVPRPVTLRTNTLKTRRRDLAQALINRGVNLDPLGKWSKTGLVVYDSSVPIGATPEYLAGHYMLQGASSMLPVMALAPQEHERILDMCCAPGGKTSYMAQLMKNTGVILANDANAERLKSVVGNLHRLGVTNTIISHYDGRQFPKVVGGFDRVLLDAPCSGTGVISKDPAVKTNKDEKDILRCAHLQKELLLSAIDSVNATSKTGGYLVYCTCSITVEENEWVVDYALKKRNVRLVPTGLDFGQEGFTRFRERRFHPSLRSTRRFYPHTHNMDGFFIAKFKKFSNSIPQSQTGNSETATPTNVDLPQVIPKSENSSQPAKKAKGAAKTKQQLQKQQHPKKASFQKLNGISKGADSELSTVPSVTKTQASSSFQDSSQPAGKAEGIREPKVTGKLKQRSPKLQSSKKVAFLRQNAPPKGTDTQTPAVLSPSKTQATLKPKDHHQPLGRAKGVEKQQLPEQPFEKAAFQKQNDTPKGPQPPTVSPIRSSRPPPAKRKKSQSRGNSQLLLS
T2 sequence (P46087 whole entry): as above
NSUN1-RNA:m5C interaction, sequence (P46087 whole entry): as above
T1 sequence (Q08J23 whole entry): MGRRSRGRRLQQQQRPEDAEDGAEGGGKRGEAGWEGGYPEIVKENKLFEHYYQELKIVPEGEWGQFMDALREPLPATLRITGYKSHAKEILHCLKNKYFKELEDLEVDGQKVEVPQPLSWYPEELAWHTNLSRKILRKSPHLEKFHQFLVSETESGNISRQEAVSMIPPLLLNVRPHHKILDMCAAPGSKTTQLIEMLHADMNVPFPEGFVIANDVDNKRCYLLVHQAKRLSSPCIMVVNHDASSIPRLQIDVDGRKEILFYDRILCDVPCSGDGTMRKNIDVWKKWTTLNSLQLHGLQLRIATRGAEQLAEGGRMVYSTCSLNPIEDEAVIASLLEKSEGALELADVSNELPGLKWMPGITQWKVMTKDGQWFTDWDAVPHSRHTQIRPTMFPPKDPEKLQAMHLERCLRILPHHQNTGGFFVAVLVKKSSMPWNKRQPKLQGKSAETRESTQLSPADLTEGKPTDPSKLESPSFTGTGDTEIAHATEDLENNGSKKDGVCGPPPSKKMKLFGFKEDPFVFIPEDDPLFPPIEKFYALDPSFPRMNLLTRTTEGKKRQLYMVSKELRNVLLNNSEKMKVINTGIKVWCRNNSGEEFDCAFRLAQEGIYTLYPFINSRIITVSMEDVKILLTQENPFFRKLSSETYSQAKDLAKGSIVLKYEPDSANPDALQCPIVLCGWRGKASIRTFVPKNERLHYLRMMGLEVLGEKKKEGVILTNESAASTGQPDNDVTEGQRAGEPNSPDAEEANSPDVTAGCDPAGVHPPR

## Cc1[nH]nc2ccc(-c3cncc(OC[C@@H](N)Cc4c[nH]c5ccccc45)c3)cc12 [NSUN1-17]
[1]
  Effect on NSUN1 interaction with RNA:m5C: but not the interaction between NSUN1 and RNA m5C; also recorded: little effects
NSUN1-c-MYC interaction
  Effect on NSUN1 interaction with c-MYC: inhibited the interaction; also recorded: can only disrupt the NSUN1-mediated interaction; also recorded: effectively disrupted
[2]
  Efficacy of tumor cell growth inhibition: high-efficacy of tumor cell growth inhibition
[3]
  Effect on NSUN2-mediated interaction with RNA polymerase II: not the NSUN-2 mediated interaction
[4]
  Binding modules targeted, from synergy experiments: likely to target multiple binding modules in both NSUN1 and NSUN2
[5]
  Effect on NSUN1 interaction with eRNAPII/RNAPII: inhibited the interaction; also recorded: can only disrupt the NSUN1-mediated interaction; also recorded: effectively disrupted
SC cells
  Inhibition of growth of venetoclax-resistant leukemia (SC) cells: inhibition of the growth of venetoclax-resistant SC cells; also recorded: inhibit drug (venetoclax)-resistant leukemia cells

## CC1(C)CCC(CN2CCN(c3ccc(C(=O)NS(=O)(=O)c4ccc(NCC5CCOCC5)c([N+](=O)[O-])c4)c(Oc4cnc5[nH]ccc5c4)c3)CC2)=C(c2ccc(Cl)cc2)C1 [venetoclax, Venetoclax]
C1498 cells
  Sensitivity/resistance of C1498 cells: moderate to high resistance
H82 cells
  Sensitivity/resistance of NCI-H82 cells: resistant
Kasumi-1 (K1) cells
  Sensitivity/resistance of Kasumi-1 cells: sensitive
CCRF-CEM cells
  Sensitivity/resistance of CCRF-CEM cells: sensitive
SC cells; monocytic leukemia line SC
  Sensitivity/resistance of SC cells: highly resistant
K1VR cells
  Sensitivity of K1VR cells after NSUN1 or NSUN2 siRNA knockdown: re-sensitize
MDS/AML; AML patients, venetoclax-based therapy, acquired resistance
  AML patients developing venetoclax acquired resistance: > 60%
MDS/AML; MDS/AML, primary resistance
  MDS/AML with primary venetoclax resistance: 30-40%

## Nc1ncn([C@@H]2O[C@H](CO)[C@@H](O)[C@H]2O)c(=O)n1 [5-AZA, 5-azacytidine]
[6]
  Sensitivity of eRNAPII (CTD-S2P)-CTD-S5P interaction: resistant
[7]
  Sensitivity of eRNAPII (CTD-S2P)-DNMT2 interaction: highly sensitive
SCAR cells
  Response of 5-AZA-resistant SCAR cells after NSUN1 knockdown: re-sensitized
[8]
  Sensitivity of eRNAPII (CTD-S2P)-NSUN3 interaction: highly sensitive
[9]
  Sensitivity of eRNAPII (CTD-S2P)-NSUN1 interaction: resistant

## Cc1sc2c(c1C)C(c1ccc(Cl)cc1)=N[C@@H](CC(=O)OC(C)(C)C)c1nnc(C)n1-2 [JQ1]
BRD4-NSUN1 interaction
  Sensitivity of BRD4-NSUN1 interaction: insensitive
[10]
  Sensitivity of BRD4-eRNAPII (CTD-S2P) interaction: insensitive
